Source: US10517889B2, “Modulators of SMAD7 expression” (Ionis Pharmaceuticals, Inc., priority 2017, dated 2019)
Strand notation (5' to 3'): a small letter for the sugar, then the base; units joined by * are phosphorothioate-linked, units joined directly phosphodiester-linked; [ ] holds rarer units or linkages, { } end groups; capitals alone tell only the bases. k = constrained ethyl (cEt); [5mC] = 5-methylcytosine; d = 2'-deoxy (DNA)

Each substance was assayed on human SMAD7 mRNA (assay: Antisense inhibition of human SMAD7 mRNA expression in Hep3B cells by 3-10-3 cEt gapmers, 10,000 nM, electroporation (Example 2)). Conditions: Hep3B cells, electroporation with 10,000 nM antisense oligonucleotide, approximately 24 hours, RTS5062, percent inhibition of SMAD7 mRNA relative to untreated control cells.
Type: cell-based
Procedure, shortened: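 Hep3B cells (20,000/well) were electroporated with 10,000 nM 3-10-3 cEt gapmer (16-mer, phosphorothioate, 5-methylcytosines) and harvested after about 24 h. SMAD7 mRNA quantified by RT-qPCR with primer probe set RTS5062, normalized to total RNA by RiboGreen; percent inhibition relative to untreated cells.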

Substance | % Inhibition
799514 (antisense kT*k[5mC]*kG*dG*dA*dG*dT*dT*dT*d[5mC]*d[5mC]*dT*d[5mC]*kA*k[5mC]*kT) [compound 799514] | 40%
799524 (antisense kA*kT*k[5mC]*dA*dA*dG*dG*dG*d[5mC]*dA*dG*dA*dA*kG*kG*k[5mC]) [compound 799524] | 23%
799525 (antisense kA*kG*kG*dT*dT*dT*dG*dG*dG*dT*dT*dG*dG*kA*k[5mC]*kT) [compound 799525] | 8%

Same assay, conditions: Hep3B cells, electroporation with 10,000 nM antisense oligonucleotide, approximately 24 hours, SMAD7 mRNA by RT-PCR (RTS5062), relative to untreated control cells

Substance | % Inhibition
799470 (antisense kA*kA*kA*dA*dG*d[5mC]*dT*d[5mC]*d[5mC]*dG*d[5mC]*dA*dT*kA*kG*kA) [compound 799470] | 10%
799472 (antisense kA*kG*k[5mC]*d[5mC]*dA*dT*dA*d[5mC]*d[5mC]*dT*d[5mC]*d[5mC]*dA*kT*k[5mC]*kT) [compound 799472] | 31%
799473 (antisense kT*kA*kT*d[5mC]*d[5mC]*d[5mC]*dA*dT*dG*dG*d[5mC]*dT*d[5mC]*kT*k[5mC]*kA) [compound 799473] | 63%
799474 (antisense k[5mC]*kA*kA*dG*dA*dG*dT*d[5mC]*d[5mC]*dA*dG*d[5mC]*d[5mC]*k[5mC]*kT*kA) [compound 799474] | 39%
799475 (antisense kG*kT*kG*dA*dG*d[5mC]*dT*dG*dG*dG*d[5mC]*dT*dA*kT*kT*k[5mC]) [compound 799475] | 51%
799485 (antisense kA*kG*k[5mC]*d[5mC]*dA*d[5mC]*dT*d[5mC]*d[5mC]*d[5mC]*d[5mC]*dG*d[5mC]*k[5mC]*kA*k[5mC]) [compound 799485] | 0%
799487 (antisense kA*kA*kA*d[5mC]*dA*dT*dA*dA*dT*dG*dA*d[5mC]*dT*kT*kA*kT) [compound 799487] | 0%
799488 (antisense kT*kG*kG*dA*dA*dG*dA*d[5mC]*dA*d[5mC]*d[5mC]*d[5mC]*d[5mC]*k[5mC]*kA*k[5mC]) [compound 799488] | 42%
799489 (antisense kT*k[5mC]*kT*dA*dA*dA*d[5mC]*d[5mC]*dA*dT*dT*dT*dT*kG*kA*kT) [compound 799489] | 0%
799490 (antisense kT*kT*kA*dA*dA*dT*dG*dG*dT*dG*dT*dA*dT*kA*k[5mC]*k[5mC]) [compound 799490] | 0%
799491 (antisense kG*kG*k[5mC]*dA*dG*dG*d[5mC]*dA*dG*dG*dA*dA*dA*kT*kG*kG) [compound 799491] | 38%
799492 (antisense kA*kA*kA*d[5mC]*dA*dA*dT*dA*dG*dA*dG*dG*d[5mC]*kA*kG*kG) [compound 799492] | 58%
799493 (antisense kA*kT*kA*d[5mC]*dA*d[5mC]*dT*dT*dA*dA*dT*d[5mC]*dA*kA*kA*k[5mC]) [compound 799493] | 1%
799494 (antisense kA*kG*kG*dA*dT*dA*d[5mC]*dA*d[5mC]*dT*dT*dA*dA*kT*k[5mC]*kA) [compound 799494] | 45%
799505 (antisense k[5mC]*k[5mC]*k[5mC]*dG*dG*d[5mC]*dT*dA*dA*dG*dG*dA*dA*kA*kG*kG) [compound 799505] | 31%
799506 (antisense kG*kG*kA*dG*dA*dG*d[5mC]*d[5mC]*d[5mC]*dG*dG*d[5mC]*dT*kA*kA*kG) [compound 799506] | 4%
799507 (antisense kA*k[5mC]*kT*d[5mC]*dA*dT*dT*dA*dG*dT*d[5mC]*d[5mC]*d[5mC]*kA*kT*kG) [compound 799507] | 34%
799508 (antisense kG*k[5mC]*kA*dA*dT*dT*dA*dA*dA*dG*d[5mC]*dA*dA*kA*kA*k[5mC]) [compound 799508] | 0%
799510 (antisense kG*kA*kG*dA*dA*dA*d[5mC]*dA*dG*dT*d[5mC]*dT*d[5mC]*k[5mC]*kA*k[5mC]) [compound 799510] | 57%
799512 (antisense kG*kT*kT*dA*dA*dT*dG*dA*dG*dG*dA*dT*dA*kA*kT*kG) [compound 799512] | 16%
799513 (antisense kT*kA*k[5mC]*d[5mC]*dT*dT*dT*dA*dG*dA*dT*dT*dG*k[5mC]*kA*kT) [compound 799513] | 66%

Same assay, conditions: Hep3B cells, electroporation with 10,000 nM antisense oligonucleotide, approximately 24 hours, primer probe set RTS5062, relative to untreated control cells

Substance | % inhibition of SMAD7 mRNA expression
799476 (antisense kG*k[5mC]*kT*d[5mC]*dA*dA*dA*dG*dG*dG*d[5mC]*d[5mC]*dA*k[5mC]*k[5mC]*k[5mC]) [compound 799476] | 0%
799477 (antisense kG*kT*kT*d[5mC]*d[5mC]*dA*dT*dA*dG*dG*d[5mC]*dA*dG*k[5mC]*k[5mC]*kA) [compound 799477] | 4%
799478 (antisense k[5mC]*k[5mC]*k[5mC]*dT*dA*d[5mC]*d[5mC]*dA*d[5mC]*d[5mC]*d[5mC]*d[5mC]*dT*kG*kT*kG) [compound 799478] | 17%
799479 (antisense kT*kG*k[5mC]*d[5mC]*d[5mC]*dT*dT*d[5mC]*dT*dG*d[5mC]*dA*dG*kT*kG*kG) [compound 799479] | 24%
799480 (antisense k[5mC]*kA*k[5mC]*dA*d[5mC]*dA*dG*dG*d[5mC]*dA*dA*d[5mC]*d[5mC]*kA*k[5mC]*kA) [compound 799480] | 45%
799481 (antisense k[5mC]*kT*k[5mC]*d[5mC]*dA*d[5mC]*dA*d[5mC]*dA*dG*dG*d[5mC]*dA*kA*k[5mC]*k[5mC]) [compound 799481] | 34%
799482 (antisense kG*kA*kA*dA*dA*dG*d[5mC]*d[5mC]*dG*dG*dG*d[5mC]*dA*kT*k[5mC]*kT) [compound 799482] | 30%
799483 (antisense k[5mC]*kA*kA*dA*dG*dG*dA*dA*dA*dA*dG*d[5mC]*d[5mC]*kG*kG*kG) [compound 799483] | 35%
799484 (antisense k[5mC]*kG*k[5mC]*d[5mC]*dA*d[5mC]*d[5mC]*dT*dT*dT*dG*dG*d[5mC]*kT*kG*kG) [compound 799484] | 0%
799495 (antisense k[5mC]*kT*kA*dA*d[5mC]*dA*dG*dG*dA*dA*dT*dA*dT*kA*k[5mC]*kA) [compound 799495] | 25%
799497 (antisense kA*kA*kG*dA*dA*d[5mC]*dT*d[5mC]*dT*d[5mC]*d[5mC]*dT*dA*kA*kG*k[5mC]) [compound 799497] | 0%

Same assay, conditions: Hep3B cells, electroporation, 10,000 nM antisense oligonucleotide, approximately 24 hours, RTS5062, relative to untreated control cells

Substance | % inhibition of SMAD7 mRNA expression
799498 (antisense kT*k[5mC]*kA*dA*dG*dA*dA*d[5mC]*dT*d[5mC]*dT*d[5mC]*d[5mC]*kT*kA*kA) [compound 799498] | 31%
799499 (antisense kT*k[5mC]*k[5mC]*dT*dT*dT*dA*dG*dT*dG*dG*d[5mC]*d[5mC]*kT*kA*k[5mC]) [compound 799499] | 54%
799500 (antisense kG*kA*kG*d[5mC]*dA*dG*dA*d[5mC]*dG*dG*dG*d[5mC]*dA*kA*kG*kT) [compound 799500] | 28%
799501 (antisense kA*kA*kA*dA*dG*dA*dG*d[5mC]*dA*dG*dA*d[5mC]*dG*kG*kG*k[5mC]) [compound 799501] | 0%
799502 (antisense k[5mC]*kA*kA*dA*dT*dA*dG*dG*dA*dA*dA*dG*d[5mC]*k[5mC]*kA*kA) [compound 799502] | 31%
799503 (antisense kG*kG*k[5mC]*d[5mC]*dA*d[5mC]*d[5mC]*dA*dG*dG*dA*d[5mC]*dA*kA*kT*kG) [compound 799503] | 0%
799504 (antisense kA*kG*kG*dA*dA*dA*dG*dG*dT*dG*d[5mC]*dT*dG*k[5mC]*k[5mC]*k[5mC]) [compound 799504] | 15%
799515 (antisense k[5mC]*k[5mC]*k[5mC]*d[5mC]*dA*dG*dA*d[5mC]*d[5mC]*dT*dG*d[5mC]*dT*kA*kA*kG) [compound 799515] | 38%
799516 (antisense k[5mC]*kA*k[5mC]*d[5mC]*dA*dG*dA*dT*d[5mC]*dA*dA*dG*dA*k[5mC]*kA*kG) [compound 799516] | 0%
799517 (antisense k[5mC]*kT*kT*dA*dA*dG*dT*dA*dG*dA*dG*d[5mC]*dA*kA*kA*kG) [compound 799517] | 0%
799518 (antisense kA*k[5mC]*kT*dT*dA*dA*dG*dT*dA*dG*dA*dG*d[5mC]*kA*kA*kA) [compound 799518] | 38%
799519 (antisense kA*kA*k[5mC]*dT*dT*dA*dA*dG*dT*dA*dG*dA*dG*k[5mC]*kA*kA) [compound 799519] | 44%
799520 (antisense kG*kA*kT*dT*dG*dA*dT*dG*dT*dT*dG*dG*dG*k[5mC]*kT*kG) [compound 799520] | 51%
799521 (antisense kT*kA*kA*dA*dG*dA*d[5mC]*dA*dG*dG*dT*dT*dT*k[5mC]*k[5mC]*k[5mC]) [compound 799521] | 57%
799522 (antisense kT*kT*kT*dA*dA*dA*dG*dA*d[5mC]*dA*dG*dG*dT*kT*kT*k[5mC]) [compound 799522] | 32%
799523 (antisense kG*kG*k[5mC]*dA*dG*dA*dA*dG*dG*d[5mC]*dT*d[5mC]*dT*k[5mC]*kT*k[5mC]) [compound 799523] | 28%
